Results on 19 compounds are retold here after patent US9227971B2, “Pyrazolo[1,5-a]pyrimidine compounds as mTOR inhibitors” (Merck Sharp & Dohme Corp., priority 2010, dated 2016).

Where two headings read alike, the source gives them in different places.

In assay [1] the test system is phosphorylated AKT Ser473 (pAKT S473), mTORC2 activity, PC3 cells. The experiment in a line: mTOR target engagement assay, immunofluorescent cell-based, pAKT S473 readout (mTORC2 activity). In outline:
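After blocking, cells were stained overnight at 4 °C with anti-pAKT S473 antibody, then a fluorescent secondary; inhibition was read as reduced fluorescence intensity.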

The test system of assay [2] is phosphorylated 4E-BP1 Thr37/46 (p4E-BP1 Thr37/46), mTORC1 activity, PC3 cells. Put plainly: mTOR target engagement assay, immunofluorescent cell-based, p4E-BP1 Thr37/46 readout (mTORC1 activity). The note with it: read-out: p4E-BP1 Thr37/46 IC50. In outline: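 PTEN-mutant PC3 prostate cells were treated with serially diluted compound in 5% FBS F12 medium (0.25% DMSO) for ninety minutes at 37° C, glyoxal-fixed, then immunostained overnight at 4° C for p4E-BP1 Thr37/46 with an Alexa Fluor 488 secondary. IC50 came from four-parameter fits of fluorescence, DMSO-only wells defining 100%.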

Setting [3] is: Homo sapiens, PC-3, PC3 cells, compound treatment ninety minutes at 37° C.
Where [4] appears, read: Homo sapiens, PC-3, Table 3-1, PC3 cells.
Where [5] appears, read: Homo sapiens, PC-3, Table 6-1, PC3 cells.
The mark [6] stands for this setting: PC3 cells, compound treatment ninety minutes at 37° C.

`CC(=O)c1c([C@@H]2C[C@H]3CC[C@@H](C2)N3C(=O)CO)nc2c(-c3ccc(-c4ccn(C)n4)nc3)cnn2c1N` [Compound 1.1.60, 1-((1R,3s,5S)-3-(6-acetyl-7-amino-3-(6-(1-methyl-1H-pyrazol-3-yl)pyridin-3-yl)pyrazolo[1,5-a]pyrimidin-5-yl)-8-azabicyclo[3.2.1]octan-8-yl)-2-hydroxyethanone]: the IC50 in assay [1] (setting [3]) and in assay [2] (setting [3]) was 100 to 1000 nM throughout.

With `CC(=O)c1c([C@@H]2C[C@H]3CC[C@@H](C2)N3C(=O)c2nnc[nH]2)nc2c(-c3cnn(-c4ccc(F)cc4)c3)cnn2c1N` [Compound 1.1.123, 1-(5-((1R,3s,5S)-8-(4H-1,2,4-triazole-3-carbonyl)-8-azabicyclo[3.2.1]octan-3-yl)-7-amino-3-(1-(4-fluorophenyl)-1H-pyrazol-4-yl)pyrazolo[1,5-a]pyrimidin-6-yl)ethanone], the IC50 fell in the range of 100 to 1000 nM in assay [1] (setting [3]) and 1000 to 10000 nM in assay [2] (setting [3]).

For `CC(=O)c1c([C@@H]2C[C@H]3CC[C@@H](C2)N3C(=O)CO)nc2c(-c3ccc(-c4cc[nH]n4)nc3)cnn2c1N` [Compound 1.1.75, 1-((1R,3s,5S)-3-(3-(6-(1H-pyrazol-3-yl)pyridin-3-yl)-6-acetyl-7-aminopyrazolo[1,5-a]pyrimidin-5-yl)-8-azabicyclo[3.2.1]octan-8-yl)-2-hydroxyethanone], the IC50 in assay [1] (setting [3]) and in assay [2] (setting [3]) was 1 to 100 nM in each case.

With `CS(=O)(=O)c1c([C@H]2CC3CC[C@H](C2)N3C(=O)c2cn[nH]n2)nc2c(-c3cnn(-c4ccccc4)c3)cnn2c1N` [Compound 3.176, ((1R,3s,5S)-3-(7-amino-6-(methylsulfonyl)-3-(1-phenyl-1H-pyrazol-4-yl)pyrazolo[1,5-a]pyrimidin-5-yl)-8-azabicyclo[3.2.1]octan-8-yl)(2H-1,2,3-triazol-4-yl)methanone], the IC50 in assay [1] (setting [4]) and in assay [2] (setting [4]) was 100 to 1000 nM each time.

In the case of `CS(=O)(=O)c1c([C@@H]2C[C@H]3CC[C@@H](C2)N3C(=O)CO)nc2c(-c3ccc(-c4ccncc4)nc3)cnn2c1N` [Compound 3.65, 1-((1R,3s,5S)-3-(3-(2,4′-bipyridin-5-yl)-7-amino-6-(methylsulfonyl)pyrazolo[1,5-a]pyrimidin-5-yl)-8-azabicyclo[3.2.1]octan-8-yl)-2-hydroxyethanone], the IC50 in assay [1] (setting [4]) and in assay [2] (setting [4]) was 1000 to 10000 nM in each case.

As for `CC(=O)c1c([C@@H]2C[C@H]3CC[C@@H](C2)N3C(=O)c2cncc(O)c2)nc2c(-c3ccc(-c4ccccc4)nc3)cnn2c1N` [Compound 1.1.50, 1-(7-amino-5-((1R,3s,5S)-8-(5-hydroxynicotinoyl)-8-azabicyclo[3.2.1]octan-3-yl)-3-(6-phenylpyridin-3-yl)pyrazolo[1,5-a]pyrimidin-6-yl)ethanone], the IC50 in assay [1] (setting [3]) and in assay [2] (setting [3]) was 100 to 1000 nM in each case.

Turning to `CS(=O)(=O)c1c([C@@H]2C[C@H]3CC[C@@H](C2)N3C(=O)c2nnc[nH]2)nc2c(-c3cnn(-c4ccccc4)c3)cnn2c1N` [Compound 3.97, ((1R,3s,5S)-3-(7-amino-6-(methylsulfonyl)-3-(1-phenyl-1H-pyrazol-4-yl)pyrazolo[1,5-a]pyrimidin-5-yl)-8-azabicyclo[3.2.1]octan-8-yl)(4H-1,2,4-triazol-3-yl)methanone], the IC50 in assay [1] (setting [4]) and in assay [2] (setting [4]) was 1 to 100 nM each time.

With `CS(=O)(=O)c1c([C@@H]2C[C@H]3CC[C@@H](C2)N3C(=O)c2ccn[nH]2)nc2c(-c3ccc(-c4ccccc4F)nc3)cnn2c1N` [Compound 3.135, ((1R,3s,5S)-3-(7-amino-3-(6-(2-fluorophenyl)pyridin-3-yl)-6-(methylsulfonyl)pyrazolo[1,5-a]pyrimidin-5-yl)-8-azabicyclo[3.2.1]octan-8-yl)(1H-pyrazol-5-yl)methanone], the IC50 in assay [1] (setting [4]) and in assay [2] (setting [4]) was 1 to 100 nM throughout.

`CC(=O)c1c([C@@H]2C[C@H]3CC[C@@H](C2)N3C(=O)c2nnc[nH]2)nc2c(-c3ccc([C@@H](C)O)nc3)cnn2c1N` [Compound 7.14, 1-(5-((1R,3s,5S)-8-(4H-1,2,4-triazole-3-carbonyl)-8-azabicyclo[3.2.1]octan-3-yl)-7-amino-3-(6-((R)-1-hydroxyethyl)pyridin-3-yl)pyrazolo[1,5-a]pyrimidin-6-yl)ethanone]: the IC50 in assay [1] (setting [3]) and in assay [2] (setting [3]) was 100 to 1000 nM throughout.

`Cn1cc(-c2cnn3c(N)c(S(C)(=O)=O)c([C@@H]4C[C@H]5CC[C@@H](C4)N5C(=O)c4nnc[nH]4)nc23)cn1` [Compound 3.111, ((1R,3s,5S)-3-(7-amino-3-(1-methyl-1H-pyrazol-4-yl)-6-(methylsulfonyl)pyrazolo[1,5-a]pyrimidin-5-yl)-8-azabicyclo[3.2.1]octan-8-yl)(4H-1,2,4-triazol-3-yl)methanone]: the IC50 in assay [1] (setting [4]) and in assay [2] (setting [4]) was 1000 to 10000 nM each time.

In the case of `CCNC(=O)N1[C@@H]2CC[C@H]1C[C@H](c1nc3c(-c4ccc(-c5ccccc5)nc4)cnn3c(N)c1S(C)(=O)=O)C2` [Compound 3.8, (1R,3s,5S)-3-(7-amino-6-(methylsulfonyl)-3-(6-phenylpyridin-3-yl)pyrazolo[1,5-a]pyrimidin-5-yl)-N-ethyl-8-azabicyclo[3.2.1]octane-8-carboxamide], the IC50 in assay [1] (setting [4]) and in assay [2] (setting [4]) was 100 to 1000 nM each time.

Consider `CC(=O)c1c([C@@H]2C[C@H]3CC[C@@H](C2)N3C(=O)c2nnc(O)[nH]2)nc2c(-c3ccc(-c4ccccc4)nc3)cnn2c1N` [Compound 1.1.40, 1-(7-amino-5-((1R,3s,5S)-8-(5-hydroxy-4H-1,2,4-triazole-3-carbonyl)-8-azabicyclo[3.2.1]octan-3-yl)-3-(6-phenylpyridin-3-yl)pyrazolo[1,5-a]pyrimidin-6-yl)ethanone], for which the IC50 in assay [1] (setting [3]) and in assay [2] (setting [3]) was 100 to 1000 nM throughout.

With `CC(=O)c1c([C@@H]2C[C@H]3CC[C@@H](C2)N3C(=O)Cc2nnn[nH]2)nc2c(-c3ccc(-c4ccccc4)nc3)cnn2c1N` [Compound 1.1.20, 1-((1R,3s,5S)-3-(6-acetyl-7-amino-3-(6-phenylpyridin-3-yl)pyrazolo[1,5-a]pyrimidin-5-yl)-8-azabicyclo[3.2.1]octan-8-yl)-2-(1H-tetrazol-5-yl)ethanone], the values for the IC50 in assay [1] (setting [3]) and in assay [2] (setting [3]) were 100 to 1000 nM and 1000 to 10000 nM, respectively.

Take `CC(=O)c1c([C@@H]2C[C@H]3CC[C@@H](C2)N3C=O)nc2c(-c3ccc(-c4ncc[nH]4)nc3)cnn2c1N` [Compound 6.15, (1R,3s,5S)-3-(3-(6-(1H-imidazol-2-yl)pyridin-3-yl)-6-acetyl-7-aminopyrazolo[1,5-a]pyrimidin-5-yl)-8-azabicyclo[3.2.1]octane-8-carbaldehyde]: the IC50 in assay [1] (setting [5]) and in assay [2] (setting [5]) was 1 to 100 nM throughout.

Consider `CC(=O)c1c([C@@H]2C[C@H]3CC[C@@H](C2)N3C(=O)c2nnc[nH]2)nc2c(-c3ccc(-c4ncc(C)[nH]4)c(F)c3)cnn2c1N` [Compound 6.39, 1-(5-((1R,3s,5S)-8-(4H-1,2,4-triazole-3-carbonyl)-8-azabicyclo[3.2.1]octan-3-yl)-7-amino-3-(3-fluoro-4-(5-methyl-1H-imidazol-2-yl)phenyl)pyrazolo[1,5-a]pyrimidin-6-yl)ethanone], for which the IC50 fell in the range of 1 to 100 nM in assay [1] (setting [5]) and 100 to 1000 nM in assay [2] (setting [5]).

As for `COc1ccc(-c2ccc(-c3cnn4c(N)c(S(C)(=O)=O)c([C@@H]5C[C@H]6CC[C@@H](C5)N6C(=O)c5nnc[nH]5)nc34)cn2)cc1C` [Compound 3.50, ((1R,3s,5S)-3-(7-amino-3-(6-(4-methoxy-3-methylphenyl)pyridin-3-yl)-6-(methylsulfonyl)pyrazolo[1,5-a]pyrimidin-5-yl)-8-azabicyclo[3.2.1]octan-8-yl)(4H-1,2,4-triazol-3-yl)methanone], the IC50 in assay [1] (setting [4]) and in assay [2] (setting [4]) was 1 to 100 nM in each case.

As to “1-((1R,3s,5S)-3-(6-acetyl-7-amino-3-(6-(fluoromethyl)pyridin-3-yl)pyrazolo[1,5-a]pyrimidin-5-yl)-8-azabicyclo[3.2.1]octan-8-yl)-2-hydroxyethanone [Compound 1.1.92]”, the IC50 in assay [1] (setting [6]) and in assay [2] (setting [6]) was 1 to 100 nM throughout.

As for `[2H]C([2H])([2H])Oc1ccc(-c2ccc(-c3ccn4c(N)c(S(C)(=O)=O)c([C@@H]5C[C@H]6CC[C@@H](C5)N6C(=O)c5nnc[nH]5)nc34)cn2)cc1` [Compound 3.62, ((1R,3s,5S)-3-(7-amino-3-(6-(4-methoxy-(D3)-phenyl)pyridin-3-yl)-6-(methylsulfonyl)pyrazolo[1,5-a]pyrimidin-5-yl)-8-azabicyclo[3.2.1]octan-8-yl)(4H-1,2,4-triazol-3-yl)methanone], the IC50 in assay [1] (setting [4]) and in assay [2] (setting [4]) was 1 to 100 nM in each case.

As to `CC(=O)c1c([C@@H]2C[C@H]3CC[C@@H](C2)N3C(=O)c2nnc(N)[nH]2)nc2c(-c3ccc(-n4cc(C)cn4)nc3)cnn2c1N` [Compound 1.1.130, 1-(7-amino-5-((1R,3s,5S)-8-(5-amino-4H-1,2,4-triazole-3-carbonyl)-8-azabicyclo[3.2.1]octan-3-yl)-3-(6-(4-methyl-1H-pyrazol-1-yl)pyridin-3-yl)pyrazolo[1,5-a]pyrimidin-6-yl)ethanone], the IC50 in assay [1] (setting [3]) and in assay [2] (setting [3]) was 1 to 100 nM in each case.
